Experimental data: ChEMBL document CHEMBL4014292, “Novel 11-norbetaenone isolated from an entomopathogenic fungus Lecanicillium antillanum” (Bioorg Med Chem Lett, 2017)
≈ marks a conversion by molar mass, not a printed value. Calls of active or inactive are those of the source. The calls are words filed in the database; no cut-off is given here.

Experiments:
[1] = system: Neutrophil; experiment: Anti-inflammatory activity in fMLP/CB-stimulated human neutrophils assessed as reduction in superoxide generation at 30 ug/mL preincubated for 5 mins followed by cytochalasin B addition for 3 mins and subsequent fMLP-stimulation for 10 mins by ferricytochrome c reduction based spectrophotometric assay; type: functional, cell-based
[2] = system: EPC; experiment: (§1) Antiangiogenic activity against human CD34-positive EPC assessed as inhibition of tube formation after 24 hrs by matrigel based inverted phase contrast microscopic analysis; type: functional, cell-based
[3] = as §1; type: functional, cell-based
[4] = system: Staphylococcus aureus; experiment: Antimicrobial activity against Methicillin-resistant Staphylococcus aureus ATCC 33592 at 2 mg/ml after 24 hrs by agar well-diffusion method; type: functional
[5] = system: MDA-MB-231; experiment: Antiproliferative activity against human MDA-MB-231 cells at 20 ug/mL after 72 hrs by MTT assay; type: functional, cell-based
[6] = system: HepG2; experiment: Antiproliferative activity against human HepG2 cells at 20 ug/mL after 72 hrs by MTT assay; type: functional, cell-based
[7] = system: A549; experiment: Antiproliferative activity against human A549 cells at 20 ug/mL after 72 hrs by MTT assay; type: functional, cell-based
[8] = system: Neutrophil; experiment: Anti-inflammatory activity in fMLP/CB-stimulated human neutrophils assessed as reduction in elastase release at 30 ug/mL using MeO-Suc-Ala-Ala-Pro-Val-p-nitroanilide as substrate preincubated for 5 mins followed by cytochalasin B addition and subsequent fMLP-stimulation for 10 mins by spectrophotometric assay; type: functional, cell-based
[9] = Cytotoxicity against CD34-positive human EPC at 25 to 50 ug/mL after 24 hrs by LDH release assay; type: cell-based

## CC[C@@H](C)[C@H]1C=C[C@H]2[C@H](O)[C@@H](CO)C[C@@H](C)[C@@H]2[C@@]1(C)C(=O)CCO
[1]
  Activity: inactive
[2]
  inhibition: Dose-dependent effect
[3]
  IC50: 34.1 mg/L (≈ 101 µM)
[4]
  Activity: inactive
[5]
  Activity: inactive
[6]
  Activity: inactive
[7]
  Activity: inactive
[8]
  Activity: inactive
[9]
  Activity: Non-Toxic
